The record followed here is patent publication US12496298B2, “Natural killer cells” (Imperial College Innovations Limited, priority 2017, dated 2025).

Each structure is given as a SMILES string.

In this assay the test system is mouse NK cell (NK1.1+CD3−) production from HPCs. The assay can be described thus: In vitro development of NK cells from mouse HPCs (NK cell development assay, flow cytometry at Day 9). Format: cell-based. Conditions: for increase in NK cell production, rank among 2, 5, 10 and 20 μM: confirmation experiments (FIG. 4). An excerpt: FIG. 2: Timeline of NK cell development assay. HPCs were isolated and cultured plus FIt3L, IL-7 and SCF cytokines. At Day 2, they were then transferred onto OP9 stromal cells plus or minus drug in culture medium plus the IL-15 cytokine. The media of the cultures were changed at Day 5 and the cells were harvested and analysed at Day 9.
Lineage negative cells are enriched for Hematopoietic Progenitor Cells (HPCs). […] Cells were harvested on Day 9 and analysed using flow cytometry to determine the number of NK1.1^+CD3^− cells (FIG. 2). NK1.1^+ and CD3^− are two cell surface markers that can define mouse NK cells. OP9 stromal cells were readily excluded from the analysis, as the OP9 stromal cells used were GFP positive (FIG. 3B). Flow cytometry data were analysed as the fold increase, relative to the ‘No drug’ or untreated control in each experiment. This is because the absolute percentage of NK cell production varies between experiments.
Lineage negative HSCs were purified from mouse bone marrow by crushing the leg bones in Phosphate-buffered Saline (PBS) with 2% fetal calf serum (FCS) (STEMCELL Technologies), topped up to 40 ml with magnetic-activated cell sorting (MACS) buffer (PBS, 2 mM EDTA, 0.5% BSA, sterile and filtered) and centrifuged at 800 g for 2 minutes. The cells were resuspended in PE-conjugated cocktail, (20 μl of anti-B220 (RA3-6B2), anti-mouse CD2 (RM2-5, anti-Ter119 (TER119) and anti-NK.1.1 (PK136) and 5 μl of anti-CD11b (M1/70) and anti-GR-1 (RB6-8C5) antibodies (all from Bioscience)) incubated for 5 minutes at 4° C., centrifuged and resuspended in anti-PE microbeads for 15 minutes at 4° C. Cells were washed in MACS buffer and passed through MACS columns. This allowed negative selection of HPCs. Following lineage depletion, 50 μl of the cells was analysed using flow cytometry to check for purity.
The HPCs were plated and cultured in 24-well plates at a concentration of 5×10^5 HPCs/well in 1 ml of complete cytokine medium (Dulbecco's modified eagle medium (DMEM) (Sigma Aldrich), 10% FCS, 50 μM β-Mercaptoethanol, 10 ng/ml Flt3-ligand (FIt3L) (R&D Systems), 10 ng/ml IL-7 (R&D Systems), 100 ng/ml stem cell factor (SCF) (R&D Systems) and 1% P/S) for 2 days at 37° C., 5% CO2. The HPCs were then transferred onto OP9 cells at 4500 cells/well for 96-well plate experiments and 3×10^4 cells/well for 24-well plate experiments in mouse NK cells differentiation medium (Alpha-MEM (Sigma Aldrich) plus 20% FCS, 1% P/S and 30 ng/ml IL-15). Cells were left in culture at 37° C., 5% CO2 for 7 days with a change of mouse NK cells differentiation medium at day 3 or 4.
Cells to be analysed by flow cytometry were passed through 40 μm cell strainers to remove clumps and washed with PBS buffer, centrifuged at 800 g for 2 minutes and resuspended in 100 μl fluorescent activated cell sorting (FACS) buffer (PBS plus 1% BSA) with appropriate fluorochrome conjugated antibodies at a dilution of 1 in 300. Cells were stained with the following antibodies, all of which were anti-mouse and are from eBioscience unless specified: 2B4 (clone m2B4(B6) 458.1; BioLegend), CD2 (RM2-5), CD3 (17A2), CD11b (M1/70), CD19 (1D3), CD27 (LG.7F9), CD122 (TM-b1), CD127 (A7R34), B220 (RA3-6B2), ckit (ACK2), Flt3 (A2F10), Gr1 (RB6-8C5), NK1.1 (PK136), Sca1 (D7), Ter119 (TER119), NKp46 (29A1.4) anti-human CD45 (HI30), anti-human CD2 (RPA-2.10) and anti-human CD56 (CMSSB). The lineage cocktail contained B220, CD2, CD11b, Gr1, NK1.1, and Ter119. Cells were stained in the dark at 4° C. for 30 minutes and then washed with 2 ml FACS buffer, centrifuged and resuspend in 300 μl FACS buffer plus Propidium Iodide (PI) also at a dilution of 1 in 300. Flow cytometry was performed using LSRFortessa™ cell analyser (Becton Dickinson Bioscience), sorted using FACSAria (Becton Dickinson) as indicated and full data analysis was done using FlowJo Software.

With `CCOC(=O)C1Cc2ccccc2CN1C(=O)c1ccc(SC)s1` (centres unmarked) [SR8278, 1,2,3,4-Tetrahydro-2-[[5-(methylthio)-2-thienyl]carbonyl]-3-isoquinolinecarboxylic acid ethyl ester], the “NK cell production relative to 'No drug' control” value (5 μM added at Day 0 (greatest effect)) is reported as “over 1.4 fold” and the “NK cell production relative to 'No drug' control” value (5 or 10 μM added after Day 2) is on record as “no significant difference”. For the same compound, the “increase in NK cell production, rank among 2, 5, 10 and 20 μM” value runs as follows: (5 μM) “followed by 5 μM”; (10 μM) “highest increase in NK cell production”. For the same compound, the “NK cell production increase compared to 'No drug' control” value (10 μM added Day 2, analysed Day 9, screen (FIG. 3)) is reported as “over 2.4 fold”. Further, the “increase in NK cell production relative to 'No drug' control” value (10 μM added on Days 0, 1 and 2) is given as “over 1.6 fold”. Besides, the “number of NK cells detected” value (20 μM added Day 2, analysed Day 9) is “reduction in the number of NK cells detected”. In addition, the “production of NK cells in NK cell production assays increases” value (summary in Discussion, concentration not given) is on record as “more than 2 fold”.
